According to article doi:10.1101/2021.01.13.426390v3 (biorxiv, 2021):

Biological target: T1, AGR3 (Homo sapiens, UniProt Q8TD06)
T1 sequence (Q8TD06 22-166): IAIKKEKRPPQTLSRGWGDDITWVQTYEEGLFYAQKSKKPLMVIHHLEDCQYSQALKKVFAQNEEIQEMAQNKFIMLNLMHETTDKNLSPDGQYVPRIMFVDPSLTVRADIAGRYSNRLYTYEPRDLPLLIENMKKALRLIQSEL
Experiment: biotin probe labelling, non-reducing SDS-PAGE, streptavidin-AP blot
Assay type: binding
Settings: covalent; labelled compound; 30 uM probe, pH 7.4, 37 C

O=C(CCCC[C@@H]1SC[C@@H]2NC(=O)N[C@@H]21)NCC(=O)N1C[C@@H]2CS(=O)(=O)SC[C@H]2C1 (racemic) [Biotin-GlyPyrDTDO]
biotin probe labelling, non-reducing SDS-PAGE, streptavidin-AP blot: it was also labeled by Biotin-GlyPyrDTDO
